Laboratory results reported in a melting point compilation (Tetko et al.).
Residues, ends and D or L forms follow the SMILES beside them. *: point of attachment. Butoxycarbonyl = CCCCOC(=O)*; Cbz = O=C(OCc1ccccc1)*; Bn = c1ccc(C*)cc1

SMILES	melting point [°C]
COc1cc(OC)c(C=CC(c2ccc(OC)c(NC(=O)C(C)O)c2)S(=O)(=O)C(C=Cc2c(OC)cc(OC)cc2OC)c2ccc(OC)c(NC(=O)C(C)O)c2)c(OC)c1 (centres undefined)	174 to 176
c1ccc(C2CN3CCSC3=N2)cc1 (centres undefined)	60 to 61.5
Cc1ccc(S(=O)(=O)N2CCN(S(=O)(=O)c3ccc(C)cc3)CC(Cc3ccc(O)cc3)N(S(=O)(=O)c3ccc(C)cc3)N(S(=O)(=O)c3ccc(C)cc3)CC2)cc1 (centres undefined)	192 to 193
CC1=C(CC(=O)O)c2cc(C#N)ccc2C1=Cc1ccc(S(C)=O)cc1 (centres undefined)	160 to 165
CCCCCCCCCCCCSc1nc(N(C2CC(C)(C)NC(C)(C)C2)C2CC(C)(C)NC(C)(C)C2)nc(N(C2CC(C)(C)NC(C)(C)C2)C2CC(C)(C)NC(C)(C)C2)n1	168 to 170
CC(C)[C@H](NC(=O)N(C)Cc1csc(NC(=O)OC(C)(C)C)n1)C(=O)N[C@@H](Cc1ccccc1)[C@H](O)[C@@H](O)[C@H](Cc1ccccc1)NC(=O)[C@@H](NC(=O)N(C)Cc1csc(NC(=O)OC(C)(C)C)n1)C(C)C	138 to 140
CCCCCC/C(=C\C=C\C(=O)O)c1ccc(OC)cc1	88 to 89.5
FC(F)(F)C(F)(F)C(F)(F)C(F)(F)C(F)(F)C(F)(F)C(F)(F)C(F)(F)CCCCCCC1(CCCCCCC(F)(F)C(F)(F)C(F)(F)C(F)(F)C(F)(F)C(F)(F)C(F)(F)C(F)(F)F)c2cc(Br)ccc2-c2ccc(Br)cc21	82 to 83
CCOC(=O)N1c2cc(OC)c(OC)cc2C(=O)C(=CN)C1C (centres undefined)	92 to 95
CCCCCCC1(CCCCCC)c2cc(Br)ccc2-c2ccc(-c3ccc(-c4ccc5c(c4)C(CCCCCC)(CCCCCC)c4cc(Br)ccc4-5)c4snnc34)cc21	188 to 190
O=S(=O)(Oc1ccc2c(OS(=O)(=O)c3ccc(OCc4ccccc4)cc3)c3cc(OS(=O)(=O)c4ccc(OCc5ccccc5)cc4)ccc3cc2c1)c1ccc(OCc2ccccc2)cc1	164 to 166
CCCCCCCCNC(=O)CO	80
Cc1cc(C(F)(F)F)ccc1Cn1nc(OC(C)C)cc1CCCOc1ncccc1CC(=O)O	105 to 107
O=C(O)Cc1cccc(-c2cc(CCCCc3ccc(OC4OC(CO)C(O)C(O)C4O)c(-c4cccc(CC(=O)O)c4)c3)ccc2OC2OC(CO)C(O)C(O)C2O)c1 (centres undefined)	195 to 197
Cc1ccc(O)c(Br)c1	16
CS(=N)(=O)c1ccc(-n2cnnn2)cc1 (centres undefined)	180 to 181
O=C1c2cc(Sc3ccc(Cl)cc3)c(Sc3ccc(Cl)cc3)cc2C(=O)c2c1c(O)c1cc(Sc3ccc(Cl)cc3)c(Sc3ccc(Cl)cc3)cc1c2O	> 300
FC(F)(F)C(F)(F)C(F)(F)C(F)(F)C(F)(F)C(F)(F)CCc1ccc(P(c2ccccc2)c2ccc(CCC(F)(F)C(F)(F)C(F)(F)C(F)(F)C(F)(F)C(F)(F)F)cc2)cc1	42.1 to 43.1
CCN(C(=O)OC(C)(C)C)C(=NC(=O)OC(C)(C)C)N1CCN(C(=O)[C@@H]2CCCN2S(=O)(=O)c2ccc(Cl)c(COc3cccc4ccc(C)nc34)c2Cl)CC1	95
Cc1ccnc2nc(SCc3ccccc3)nn12	102 to 104

SMILES	melting point [°C]
CCCCCCCCCCCCNC(=O)c1cccc(Sc2c(Nc3cc(C(=O)NCCCCCCCCCCCC)ccc3Cl)nn(-c3c(Cl)cc(Cl)cc3Cl)c2OS(=O)(=O)c2ccccc2)c1	112 to 114
CCCCCCCCCCCCc1c2c(c(CCCCCCCCCCCC)c3c1-c1ccc(Br)cc1C3=C(C#N)C#N)-c1ccc(Br)cc1C2=C(C#N)C#N	136 to 137
CS(=N)(=O)c1ccc(Nc2ncc(Br)c(Cl)n2)cc1 (racemic)	170 to 173
C=CC(CC(O)C(CC1CCCCC1)NC(=O)C(Cc1c[nH]cn1)NC(=O)C(Cc1ccccc1)NC(=O)CN(CCNC(=O)OC(C)(C)C)C(=O)OC(C)(C)C)C(C)C (centres undefined)	109
CCC(=O)OC1(C(=O)C(O)OC(=O)C(NC(=O)C2CCCN2C(=O)C(C)NC(=O)C(C)NC(=O)N(c2ccccc2)c2ccccc2)C(C)C)CCC2C3CC(C)C4=CC(=O)C=CC4(C)C3C(O)CC21C (centres undefined)	150 to 152
CC(C)CCCC(C)C1CCC2C3CC=C4CC(N(CCCNC(=O)CCCCCNc5ccc([N+](=O)[O-])cc5[N+](=O)[O-])S(=O)(=O)c5ccccc5[N+](=O)[O-])CCC4(C)C3CCC12C (centres undefined)	80 to 82
O=C(O)Cc1cccc(-c2cc(CCCC(=O)N3CCC(CCCC4CCN(C(=O)CCCc5ccc(OC6OC(CO)C(O)C(O)C6O)c(-c6cccc(CC(=O)O)c6)c5)CC4)CC3)ccc2OC2OC(CO)C(O)C(O)C2O)c1 (centres undefined)	119 to 121
CCC(CC)Nc1cc(C)nc(Oc2c(C)cc(C)cc2C)c1[N+](=O)[O-]	160 to 162
Nc1cccc(CN2C(=O)C3(COc4cc5c(cc43)OCCO5)c3ccccc32)n1 (centres undefined)	240 to 241
CCCCCc1ccc(OCCCCCCOc2ccc(-c3ccc4c5c(c(C(=O)OCC)cc4c3)C=CC(c3ccccc3)(c3ccc(N4CCCCC4)cc3)O5)cc2)cc1 (centres undefined)	85 to 86
Nc1cc(C(F)(F)C(F)(F)OC(F)(F)C(F)(F)OC(F)(F)C(F)(F)OC(F)(F)C(F)(F)C(F)(F)C(F)(F)C(F)(F)OC(F)(F)C(F)(F)c2ccc(O)c(N)c2)ccc1O	92 to 95
COc1cc2c(cc1-c1cc3c4cc(-c5ccccc5)ccc4n(CCC(C)CCCC(C)C)c3cc1OC)c1cc(-c3ccccc3)ccc1n2CCC(C)CCCC(C)C (centres undefined)	155
CCCCN(Cc1c(C)cc(C(C)(C)C)c(O)c1C)S(=O)(=O)c1ccc(-c2ccc(S(=O)(=O)N(CCCC)Cc3c(C)cc(C(C)(C)C)c(O)c3C)cc2)cc1	225 to 227
CCCCOC(=O)NC(COCc1ccccc1)C(=O)NC(Cc1c[nH]c2ccccc12)C(=O)NC(CO)C(=O)NC(Cc1ccc(O)cc1)C(=O)NC(Cc1ccccc1)C(=O)NC(CC(C)C)C(=O)OC (centres undefined) (Butoxycarbonyl-S(Bn)WSYFL-OMe; configuration not given here)	200 to 202
CCCCCCCCCCCCS(=O)(=O)Nc1cc(C(=O)Nc2ccc(Cl)c(Cl)c2)ccc1OC	151 to 152
CC(C)CCCC(C)C1CCC2C3CC=C4CC(N(CCCNC(=O)CCNC(=O)CCNC(=O)CCCCCNc5ccc([N+](=O)[O-])c6nonc56)S(=O)(=O)c5ccccc5[N+](=O)[O-])CCC4(C)C3CCC12C (centres undefined)	113 to 114
COC1C(=O)C2(C)C(OC)CC3OCC3(OC(C)=O)C2C(OC(=O)c2ccccc2)C2(O)CC(OC(=O)C(O)C(NC(=O)OC(C)(C)C)c3ccccc3)C(C)=C1C2(C)C (centres undefined)	125 to 145
COCCOCCOc1cc2c3cc(OCCOCCOC)c(OCCOCCOC)cc3c3cc(OCCOCCOC)c(OCCOCCOC)cc3c2cc1OCCOCCOC	54
Cc1ccccc1CNC(=O)[C@H]1N(C(=O)[C@@H](O)[C@H](Cc2ccccc2)NC(=O)C(C)C(C)C(=O)OC[C@H]2O[C@@H](n3cc(C)c(=O)[nH]c3=O)CC2N=[N+]=[N-])CSC1(C)C (some centres undefined)	116 to 118
Cc1ccc2cccc(OCc3c(Cl)ccc(S(=O)(=O)N4CCC[C@H]4C(=O)NC4CCN(C(=O)CCN(C=NC(=O)OC(C)(C)C)NC(=O)OC(C)(C)C)CC4)c3Cl)c2n1	112

SMILES	melting point [°C]
CCCCCCCCCCCCNC(=O)c1cccc(Sc2c(Nc3cc(C(=O)NCCCCCCCCCCCC)ccc3Cl)nn(-c3c(Cl)cc(Cl)cc3Cl)c2OC(=O)CCC)c1	111 to 113
CC1CNc2c(cccc2S(=O)(=O)NC(CCCc2cn(C(c3ccccc3)(c3ccccc3)c3ccccc3)cn2)C(=O)N2CCC(C)CC2C(=O)NOCc2ccccc2)C1 (centres undefined)	90 to 100
N=S(=O)(c1ccccc1)c1cccs1 (centres undefined)	133
O=C(Nc1ccc(Cl)cc1)NC1CCN(S(=O)(=O)c2ccc(C(=O)O)cc2)CC1	266 to 270
O=C(NCCCCCCCCCCCCNC(=O)C(O)C(O)C(O)C(O)COC1OC(CO)C(O)C(O)C1O)C(O)C(O)C(O)C(O)COC1OC(CO)C(O)C(O)C1O (centres undefined)	114 to 123
CC1(C)CC(C(O)CNc2nc(NCCCCCCNc3nc(NCC(O)C4CC(C)(C)NC(C)(C)C4)nc(NCC(O)C4CC(C)(C)NC(C)(C)C4)n3)nc(NCC(O)C3CC(C)(C)NC(C)(C)C3)n2)CC(C)(C)N1 (centres undefined)	165 to 168
COC(=O)C(CC(C)C)NC(=O)C(Cc1ccccc1)NC(=O)C(Cc1ccc(O)cc1)NC(=O)C(CO)NC(=O)C(Cc1c[nH]c2ccccc12)NC(=O)OCc1ccccc1 (centres undefined) (Cbz-WSYFL-OMe; configuration not given here)	221 to 223
CS(=N)(=O)Cc1ccc(Cl)nc1 (centres undefined)	134 to 136
C=C(C)C(=O)Nc1ccc2ncnc(Nc3cccc(Br)c3)c2c1	244 to 245
CN(C)c1ccccn1	0
C=CCC1C=C(C)CC(C)CC(OC)C2OC(O)(C(C)CC2OC)C(O)C(=O)N2CCCCC2C(=O)OC(C(C)=CC2CCC(O)C(OC)C2)C(C)C(O)CC1O (centres undefined)	130 to 150
Cc1ccc(Cc2cc(OCCCCCCCCCCCCP(=O)(O)O)ccc2S(=O)(=O)c2ccc(OCCCCCCCCCCCCP(=O)(O)O)cc2Cc2ccc(C)cc2)cc1	148 to 150
C=CC1=C(C)c2cc3[nH]c(cc4nc(cc5[nH]c(cc1n2)c(C)c5CCC(=O)OC(CN(C)C)CN(C)C)C(CCC(=O)OC(CN(C)C)CN(C)C)=C4C)c(C)c3C=C	181 to 190
O=S(=NCCN1CCOCC1)(c1cccs1)c1cccs1	190
Cc1cc(C)c2cccc(OCc3c(Cl)ccc(S(=O)(=O)N4CCC[C@H]4C(=O)NC4CCN(C(=O)CCN(C=NC(=O)OC(C)(C)C)NC(=O)OC(C)(C)C)CC4)c3Cl)c2n1	115 to 117
Cc1ccc(C(c2ccc(C)c(C(OS(C)(=O)=O)(C(F)(F)F)C(F)(F)F)c2)(C(F)(F)F)C(F)(F)F)cc1C(OS(C)(=O)=O)(C(F)(F)F)C(F)(F)F	135
CCCCCCCCCCSc1c(SCCCCCCCCCC)c(SCCCCCCCCCC)c(C(O)=NCCO)c(C(=O)O)c1SCCCCCCCCCC	57 to 58
Cc1nc(C(=O)Cl)c(C)o1	37.7
CCCCOC(=O)C(C)(C)Oc1ccc(-c2nc(-c3ccc(OC(C)(C)C(=O)OCCCC)cc3O)nc(-c3ccc(OC(C)(C)C(=O)OCCCC)cc3O)n2)c(O)c1	86 to 91
